Results: US7872045B2, “Combination therapy for glaucoma treatment” (Allergan, Inc., priority 2001, dated 2011)

What was measured:
[1] = molecular target: T1, human EP4 receptor (hEP4) (Homo sapiens, UniProt P35408); experiment: Radioligand binding competition vs [3H]PGE2, human recombinant EP4 receptor; conditions: [3H]PGE2 competition, plasma membranes of HEK-293 stable transfectants, 60 min 25° C.
T1 construct: expressed in transfected cells; plasma membrane fraction
Experimental: (§1) Human Recombinant EP1, EP2, EP4, and FP Receptors: Stable Transfectants
(§2) HEK-293 cells stably expressing the human or feline FP receptor, or EP1, EP2, EP3, or EP4 receptors were washed with TME buffer, scraped from the bottom of the flasks, and homogenized for 30 sec using a Brinkman PT 10/35 polytron. TME buffer was added to achieve a final 40 ml volume in the centrifuge tubes (the composition of TME is […]; ION HCl is added to achieve a pH of 7.4).
(§3) The cell homogenate was centrifuged at 19000 r.p.m. for 20 min at 4° C. using a Beckman Ti-60 rotor. The resultant pellet was resuspended in TME buffer to give a final 1 mg/ml protein concentration, as determined by Biorad assay. Radioligand binding competition assays vs. [^3H-]17 -phenyl PGF2α (5 nM) were performed in a 100 μl volume for 60 min. Binding reactions were started by adding plasma membrane fraction. The reaction was terminated by the addition of 4 ml ice-cold TRIS-HCl buffer and rapid filtration through glass fiber GF/B filters using a Brandel cell harvester. The filters were washed 3 times with ice-cold buffer and oven dried for one hour. Non-specific binding was determined with 10 uM unlabeled 17 -phenyl PGF2α.
(§4) [^3H-] PGE2 (5 nM; specific activity 180 Ci mmol) was used as the radioligand for EP receptors. Binding studies employing EP1, EP2, EP3, EP4 were performed in duplicate in at least three separate experiments. A 200 μl assay volume was used. Incubations were for 60 min at 25° C. and were terminated by the addition of 4 ml of ice-cold 50 mM TRIS-HCl, followed by rapid filtration through Whatman GF/B filters and three additional 4 ml washes in a cell harvester (Brandel). Non-specific binding determined with 10^−5M of unlabeled PGE2,.
(§5) Plasmids encoding the human EP1, EP2, EP4, and FP receptors were prepared by cloning the respective coding sequences into the eukaryotic expression vector pCEP4 (Invitrogen). The pCEP4 vector contains an Epstein Barr virus (EBV) origin of replication, which permits episomal replication in primate cell lines expressing EBV nuclear antigen (EBNA-1). Similarly, competitive experiments were caried out using [3H]17-phenylPGF2α at 5 nM in the presence of test ligands at various concentrations. Also non-specific binding was, determined in the presence of excess unlabeled PGF2α (10^−5 M).
(§6) It also contains a hygromycin resistance gene that is used for eukaryotic selection. The cells employed for stable transfection were human embryonic kidney cells (HEK-293) that were transfected with and express the EBNA-1 protein. These HEK-293-EBNA cells (Invitrogen) were grown in medium containing Geneticin (G418) to maintain expression of the EBNA-1 protein. HEK-293 cells were grown in DMEM with 10% fetal bovine serum (FBS), 250 μg ml G418 (Life Technologies) and 200 μg ml^−1 gentamicin or penicillin/streptomycin.
(§7) For transfection, the cells were grown to 50-60% confluency on 10 cm plates. The plasmid pCEP4 incorporating cDNA inserts for the respective human prostanoid receptor (20 μg) was added to 500 μl of 250 mM CaCl2. HEPES buffered saline ×2 (2×HBS, 280 mM NaCl, 20 mM HEPES acid, 1.5 mM Na2 HPO4, pH 7.05-7.12) was then added dropwise to a total of […], with continuous vortexing at room temperature. After 30 min, 9 ml DMEM were added to the mixture. The DNA/DMEM/calcium phosphate mixture was then added to the cells, which had been previously rinsed with 10 ml PBS. The cells were then incubated for 5 hr at 37° C. in humidified 95% air/5% CO2. The calcium phosphate solution was then removed and the cells were treated with 10% glycerol in DMEM for 2 min. The glycerol solution was then replaced by DMEM with 10% FBS. The cells were incubated overnight and the medium was replaced by DMEM/10% FBS containing 250 μg ml^−1 G418 and penicillin/streptomycin. The following day hygromycin B was added to a final concentration of 200 μg ml^−1. […]

[2] = molecular target: T2, human EP3 receptor (hEP3, D isoform) (Homo sapiens, UniProt P43115); experiment: Radioligand binding competition vs [3H]PGE2, human recombinant EP3 receptor; conditions: [3H]PGE2 competition, plasma membranes of transfected cells (COS-7 transient; HEK-293 also named), 60 min 25° C.
T2 construct: expressed in transfected cells; host or cells: COS-7 cells, transient transfection with pcDNA3 (lipofectin); plasma membrane fraction
T2 sequence (P43115 1-374 isoform P43115-4): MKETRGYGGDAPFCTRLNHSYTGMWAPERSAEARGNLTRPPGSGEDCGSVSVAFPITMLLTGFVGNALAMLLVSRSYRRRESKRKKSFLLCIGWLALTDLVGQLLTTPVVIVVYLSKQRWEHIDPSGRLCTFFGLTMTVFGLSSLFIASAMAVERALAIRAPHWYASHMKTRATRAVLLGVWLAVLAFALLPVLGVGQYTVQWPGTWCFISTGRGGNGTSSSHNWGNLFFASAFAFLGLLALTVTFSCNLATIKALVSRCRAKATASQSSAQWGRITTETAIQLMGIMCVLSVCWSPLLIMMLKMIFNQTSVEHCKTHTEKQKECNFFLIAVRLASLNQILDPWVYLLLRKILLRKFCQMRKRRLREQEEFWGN
Experimental: as §2, §4
Human Recombinant EP3 and TP Receptors: Transient Transfectants.
Plasmids encoding the human EP3 (D isoform) or TP receptor were prepared by cloning the respective coding sequences into a pcDNA3 vector (Invitrogen). COS-7 cells were transfected with pcDNA3 containing cDNA encoding the EP3 or TP receptor by employing the lipofectin method, according to the manufacturers instructions (Gibco). For radioligand binding studies, cells were harvested two days after transfection.
Radioligand binding studies on plasma membrane fractions prepared from cells were performed as follows. Cells washed with TME buffer were scraped from the bottom of the plates and homogenized for 30 sec using a Brinkman PT 10/35 polytron. TME buffer was added as necessary to achieve a 40 ml volume in the centrifuge tubes. TME is comprised of 50 mM TRIS base, 10 mM MgCl2, 1 mM EDTA; pH 7.4 is achieved by adding 1 N HCl. The cell homogenate was centrifuged at 19,000 rpm for 20-25 min at 4° C. using a Beckman Ti-60 or T ? -70 rotor. The pellet was then resuspended in TME buffer to provide a final protein concentration of 1 mg/ml, as determined by Bio-Rad assay. Radioligand binding assays were performed in a 100 μl or 200 μl volume.
The binding of [^3H] PGE2 (specific activity 165 Ci/mmol) was determined in duplicate and, in at least 3 separate experiments. Incubations were for 60 min at 25° C. and were terminated by the addition of 4 ml of ice-cold 50 mM TRIS-HCl followed by rapid filtration through Whatman GF/B filters and three additional 4 ml washes in a cell harvester (Brandel). Competition studies were performed using a final concentration of 2.5 or 5 nM [H] PGE2 and non-specific binding was determined with 10^−5 M unlabelled PGE2.

[3] = molecular target: T3, human EP2 receptor (hEP2) (Homo sapiens, UniProt P43116); experiment: Radioligand binding competition vs [3H]PGE2, human recombinant EP2 receptor; conditions: [3H]PGE2 competition, plasma membranes of HEK-293 stable transfectants, 60 min 25° C.
T3 construct: expressed in transfected cells; plasma membrane fraction
Experimental: as §1, §2, §3, §4, §5, §6, §7

T1 sequence (P35408 whole entry): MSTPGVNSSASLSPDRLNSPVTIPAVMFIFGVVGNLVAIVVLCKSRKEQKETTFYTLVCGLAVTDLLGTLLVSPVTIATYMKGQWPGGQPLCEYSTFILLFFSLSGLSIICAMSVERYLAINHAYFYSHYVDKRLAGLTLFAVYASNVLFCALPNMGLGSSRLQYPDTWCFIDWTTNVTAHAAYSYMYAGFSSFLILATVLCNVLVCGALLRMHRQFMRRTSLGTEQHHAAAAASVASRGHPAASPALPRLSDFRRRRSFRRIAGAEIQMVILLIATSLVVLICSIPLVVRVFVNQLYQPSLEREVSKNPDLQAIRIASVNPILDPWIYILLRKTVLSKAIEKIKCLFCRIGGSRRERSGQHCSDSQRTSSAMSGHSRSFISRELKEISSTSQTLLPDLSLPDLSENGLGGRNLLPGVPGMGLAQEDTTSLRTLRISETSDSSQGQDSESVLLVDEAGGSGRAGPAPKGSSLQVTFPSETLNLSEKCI
T3 sequence (P43116 whole entry): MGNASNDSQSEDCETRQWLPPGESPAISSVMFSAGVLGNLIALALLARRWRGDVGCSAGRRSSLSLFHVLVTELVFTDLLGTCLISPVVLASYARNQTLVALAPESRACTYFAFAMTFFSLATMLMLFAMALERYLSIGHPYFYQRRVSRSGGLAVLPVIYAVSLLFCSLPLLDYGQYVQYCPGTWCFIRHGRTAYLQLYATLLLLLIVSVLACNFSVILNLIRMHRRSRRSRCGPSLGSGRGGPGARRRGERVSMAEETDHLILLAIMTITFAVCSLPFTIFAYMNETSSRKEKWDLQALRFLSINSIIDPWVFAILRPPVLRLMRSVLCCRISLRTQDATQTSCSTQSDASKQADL

SMILES | IC50 [1] | IC50 [2] | IC50 [3]
O=C(O)CSCCCS[C@H]1C(=O)C[C@@H](O)[C@@H]1/C=C/C(O)CCc1ccc2ccccc2c1 (single isomer, unassigned) [Example 10H] | 450 nM | > 10000 nM | > 10000 nM
O=C(O)CSCCCS[C@H]1C(=O)C[C@@H](O)[C@@H]1/C=C/C(O)CCc1ccc2ccccc2c1 (single isomer, unassigned) [Example 10L] | 19.5 nM | 8300 nM | > 10000 nM
O=C(O)CSCCCS[C@H]1C(=O)C[C@@H](O)[C@@H]1/C=C/C(O)Cc1ccc2ccccc2c1 (single isomer, unassigned) [Example 22L] | 6.2 nM | > 10000 nM | > 10000 nM
COC(=O)CSCCCS[C@H]1C(=O)C[C@@H](O)[C@@H]1/C=C/C(O)Cc1csc2ccccc12 (single isomer, unassigned) [Example 24L] | 30 nM | > 10000 nM | 9300 nM
O=C(O)CSCCCS[C@H]1C(=O)C[C@@H](O)[C@@H]1/C=C/C(O)Cc1csc2ccccc12 (single isomer, unassigned) [Example 25H] | 69 nM | – | > 10000 nM
O=C(O)CSCCCS[C@H]1C(=O)C[C@@H](O)[C@@H]1/C=C/C(O)Cc1csc2ccccc12 (single isomer, unassigned) [Example 25L] | 5 nM | > 10000 nM | 2200 nM
COC(=O)CSCCCS[C@H]1C(=O)C[C@@H](O)[C@@H]1/C=C/[C@@H](O)CCc1cc2ccccc2s1 [Example 13L, {3-[(1R,2S,3R)-3-Hydroxy-2-((S)-(E)-3-hydroxy-5-(benzothienyl)pent-1-enyl)-5-oxocyclopentylsulfanyl]propylsulfanyl}acetic acid methyl ester] | 93 nM | 7200 nM | > 10000 nM
O=C(O)CSCCCS[C@H]1C(=O)C[C@@H](O)[C@@H]1/C=C/[C@@H](O)CCc1cc2ccccc2s1 [Example 14H, {3-[(1R,2S,3R)-3-Hydroxy-2-((S)-(E)-3-hydroxy-5-(benzothienyl)pent-1-enyl)-5-oxocyclopentylsulfanyl]propylsulfanyl}acetic acid] | 27 nM | > 10000 nM | > 10000 nM
O=C(O)CSCCCS[C@H]1C(=O)C[C@@H](O)[C@@H]1/C=C/[C@@H](O)CCc1cc2ccccc2s1 [Example 14L, {3-[(1R,2S,3R)-3-Hydroxy-2-((S)-(E)-3-hydroxy-5-(benzothienyl)pent-1-enyl)-5-oxocyclopentylsulfanyl]propylsulfanyl}acetic acid] | 13 nM | > 10000 nM | ≥ 10000 nM
C[C@@](O)(/C=C/[C@H]1[C@H](O)CC(=O)[C@@H]1SCCCSCC(=O)O)CCc1cc2ccccc2s1 [Example 34H, {3-[(1R,2S,3R)-3-Hydroxy-2-((S)-(E)-3-(hydroxy)-3-(methyl)-5-(benzothienyl)pent-1-enyl)-5-oxocyclopentylsulfanyl]propylsulfanyl}acetic acid] | 32 nM | > 10000 nM | > 10000 nM
C[C@@](O)(/C=C/[C@H]1[C@H](O)CC(=O)[C@@H]1SCCCSCC(=O)O)CCc1cc2ccccc2s1 [Example 34L, {3-[(1R,2S,3R)-3-Hydroxy-2-((S)-(E)-3-(hydroxy)-3-(methyl)-5-(benzothienyl)pent-1-enyl)-5-oxocyclopentylsulfanyl]propylsulfanyl}acetic acid] | 68 nM | > 10000 nM | –
